In US10471046B2, “Method for treating, preventing, or reducing the risk of skin infection” (Melinta Subsidiary Corp., priority 2014, dated 2019):
≈ marks a conversion by molar mass, not a printed value.

Tested on: S. aureus
Test: Minimum inhibitory concentrations (MICs) for S. aureus of exemplary compounds (Table 2)
Format: cell-based
Settings: Staphylococcus aureus, minimum inhibitory concentrations for S. aureus; read-out: MICs
Procedure, shortened: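 MICs (μg/mL) against S. aureus come from microtiter-tray dilution susceptibility testing per NCCLS M7-A5, comparing growth with and without compound.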

Row | SMILES | MIC
1 | CC(=O)NC[C@H]1CN(c2ccc(-c3ccc(Cn4ccc(N)n4)cc3)c(F)c2)C(=O)O1 [Compound 1053, N-{3-[4′-(3-Amino-pyrazol-1-ylmethyl)-2-fluoro-biphenyl-4-yl]-2-oxo-oxazolidin-5-(S)-ylmethyl}-acetamide] | 1 µg/mL (≈ 2.36 µM)
2 | CSc1nc(CNCc2ccc(-c3ccc(N4C[C@H](CNC(C)=O)OC4=O)cc3F)cc2)ccc1C#N [Compound 4128, N-[3-(4′-{[(5-Cyano-6-methylsulfanyl-pyridin-2-ylmethyl)-amino]-methyl}-2-fluoro-biphenyl-4-yl)-2-oxo-oxazolidin-5-(S)-ylmethyl]-acetamide] | 0.5 µg/mL (≈ 0.962 µM)
3 | CC(=O)NC[C@H]1CN(c2ccc(-c3ccc(COCc4ccccn4)cn3)c(F)c2)C(=O)O1 [Compound 4197, N-(3-{3-Fluoro-4-[5-(pyridin-2-ylmethoxymethyl)-pyridin-2-yl]-phenyl}-2-oxo-oxazolidin-5-(S)-ylmethyl)-acetamide] | 4 µg/mL (≈ 8.88 µM)
4 | CC(=O)NC[C@H]1CN(c2ccc(-c3ccc(Cn4ccnn4)nc3)c(F)c2)C(=O)O1 [Compound 1036, N-{3-[3-Fluoro-4-(6-[1,2,3]triazol-1-ylmethyl-pyridin-3-yl)-phenyl]-2-oxo-oxazolidin-5-(S)-ylmethyl}-acetamide] | 1 µg/mL (≈ 2.44 µM)
5 | CC(=O)NC[C@H]1CN(c2ccc(-c3ccc(CNCc4csc(-c5ccccc5)n4)cc3)c(F)c2)C(=O)O1 [Compound 4122, N-[3-(2-Fluoro-4′-{[(2-phenyl-thiazol-4-ylmethyl)-amino]-methyl}-biphenyl-4-yl)-2-oxo-oxazolidin-5-(S)-ylmethyl]-acetamide] | 1 µg/mL (≈ 1.88 µM)
6 | CC(=O)NC[C@H]1CN(c2ccc(-c3ccc(CNCc4cccc(C#N)c4)cc3)c(F)c2)C(=O)O1 [Compound 4070, N-(3-{4′-[(3-Cyano-benzylamino)-methyl]-2-fluoro-biphenyl-4-yl}-2-oxo-oxazolidin-5-(S)-ylmethyl)-acetamide] | 1 µg/mL (≈ 2.12 µM)
7 | CC(=O)NC[C@H]1CN(c2ccc(-c3ccc(CNCc4c(C)nn(C)c4C)cc3)c(F)c2)C(=O)O1 [Compound 4163, N-[3-(2-Fluoro-4′-{[(1,3,5-trimethyl-1H-pyrazol-4-ylmethyl)-amino]-methyl}-biphenyl-4-yl)-2-oxo-oxazolidin-5-(S)-ylmethyl]-acetamide] | 8 µg/mL (≈ 16.7 µM)
8 | CC(=O)NC[C@H]1CN(c2ccc(-c3ccc(CNCC(=O)N4CCN(C(=O)OC(C)(C)C)CC4)cc3)c(F)c2)C(=O)O1 [Compound 4315, 4-[2-({4′-[5-(S)-(Acetylamino-methyl)-2-oxo-oxazolidin-3-yl]-2′-fluoro-biphenyl-4-ylmethyl}-amino)-acetyl]-piperazine-1-carboxylic acid tert-butyl ester] | 4 µg/mL (≈ 6.85 µM)
9 | CC(=O)NC[C@H]1CN(c2ccc(-c3ccc(CNCc4cccnc4)cc3)c(F)c2)C(=O)O1 [Compound 4025, N-[3-(2-Fluoro-4′-{[(pyridin-3-ylmethyl)-amino]-methyl}-biphenyl-4-yl)-2-oxo-oxazolidin-5-(S)-ylmethyl]-acetamide] | 1 µg/mL (≈ 2.23 µM)
10 | CC(=O)NC[C@H]1CN(c2ccc(-c3ccc(CNC(=O)[C@@H](Cc4c[nH]c5ccccc45)NC(=O)OC(C)(C)C)cc3)c(F)c2)C(=O)O1 [Compound 4308, [1-(R)-({4′-[5-(S)-(Acetylamino-methyl)-2-oxo-oxazolidin-3-yl]-2′-fluoro-biphenyl-4-ylmethyl}-carbamoyl)-2-(1H-indol-3-yl)-ethyl]-carbamic acid tert-butyl ester] | 128 µg/mL (≈ 199 µM)
11 | CC(=O)NC[C@H]1CN(c2ccc(-c3ccc(CNC(=O)/C=C/c4ccc(=O)n(C)c4)cc3)c(F)c2)C(=O)O1 [Compound 4193, N-{4′-[5-(S)-(Acetylamino-methyl)-2-oxo-oxazolidin-3-yl]-2′-fluoro-biphenyl-4-ylmethyl}-3-(1-methyl-6-oxo-1,6-dihydro-pyridin-3-yl)-acrylamide] | 8 µg/mL (≈ 15.4 µM)
12 | CC(=O)NC[C@H]1CN(c2ccc(-c3ccc(CNCc4c[nH]c(-c5ccccc5)n4)cc3)c(F)c2)C(=O)O1 [Compound 4123, N-[3-(2-Fluoro-4′-{[(2-phenyl-1H-imidazol-4-ylmethyl)-amino]-methyl}-biphenyl-4-yl)-2-oxo-oxazolidin-5-(S)-ylmethyl]-acetamide] | 16 µg/mL (≈ 31.2 µM)
13 | CC(=O)NC[C@H]1CN(c2ccc(-c3ccc(Cn4cc(C(=O)O)cn4)cc3)c(F)c2)C(=O)O1 [Compound 1051, 1-{4′-[5-(S)-(Acetylamino-methyl)-2-oxo-oxazolidin-3-yl]-2′-fluoro-biphenyl-4-ylmethyl}-1H-pyrazole-4-carboxylic acid] | 1 µg/mL (≈ 2.21 µM)
14 | CC(=O)NC[C@H]1CN(c2ccc(-c3ccc(CN4CCN(CCO)CC4)cc3)c(F)c2)C(=O)O1 [Compound 1029, N-(3-{2-Fluoro-4′-[4-(2-hydroxy-ethyl)-piperazin-1-ylmethyl]-biphenyl-4-yl}-2-oxo-oxazolidin-5-(S)-ylmethyl)-acetamide] | 2 µg/mL (≈ 4.25 µM)
15 | CC(=O)NC[C@H]1CN(c2ccc(-c3ccc(CNS(=O)(=O)c4cn(C)cn4)cc3)c(F)c2)C(=O)O1 [Compound 2043, N-(3-{2-Fluoro-4′-[(1-methyl-1H-imidazole-4-sulfonylamino)-methyl]-biphenyl-4-yl}-2-oxo-oxazolidin-5-(S)-ylmethyl)-acetamide] | 2 µg/mL (≈ 3.99 µM)
16 | CC(=O)NC[C@H]1CN(c2ccc(-c3ccc([C@H](O)CN(CCCF)Cc4ccccc4)cc3)c(F)c2)C(=O)O1 [Compound 4247, N-[3-(4′-{2-[Benzyl-(3-fluoro-propyl)-amino]-1-(S)-hydroxy-ethyl}-2-fluoro-biphenyl-4-yl)-2-oxo-oxazolidin-5-(S)-ylmethyl]-acetamide] | 8 µg/mL (≈ 14.9 µM)
17 | CC(=O)NC[C@H]1CN(c2ccc(-c3ccc(CSc4ncc[nH]4)cc3)c(F)c2)C(=O)O1 [Compound 2032, N-{3-[2-Fluoro-4′-(1H-imidazol-2-ylsulfanylmethyl)-biphenyl-4-yl]-2-oxo-oxazolidin-5-(S)-ylmethyl}-acetamide] | 1 µg/mL (≈ 2.27 µM)
18 | CC(=O)NC[C@H]1CN(c2ccc(-c3ccc(CSCC4CO4)cc3)c(F)c2)C(=O)O1 (stereo partly drawn) [Compound 4226, N-[3-(2-Fluoro-4′-oxiranylmethylsulfanylmethyl-biphenyl-4-yl)-2-oxo-oxazolidin-5-(S)-ylmethyl]-acetamide] | 1 µg/mL (≈ 2.32 µM)
19 | CC(=O)NC[C@H]1CN(c2ccc(-c3ccc(NC(=O)NCc4ccccn4)cc3)c(F)c2)C(=O)O1 [Compound 6005, N-{3-[2-Fluoro-4′-(3-pyridin-2-ylmethyl-ureido)-biphenyl-4-yl]-2-oxo-oxazolidin-5-(S)-ylmethyl}-acetamide] | 1 µg/mL (≈ 2.09 µM)
20 | CC(=O)NC[C@H]1CN(c2ccc(-c3ccc(C[S+]([O-])Cc4ccncc4)cc3)c(F)c2)C(=O)O1 (stereo partly drawn) [Compound 4212, N-{3-[2-Fluoro-4′-(pyridin-4-ylmethanesulfinylmethyl)-biphenyl-4-yl]-2-oxo-oxazolidin-5-(S)-ylmethyl}-acetamide] | 0.25 µg/mL (≈ 0.519 µM)
21 | CC(=O)NC[C@H]1CN(c2ccc(-c3ccc(CNCc4c(C)nn(C)c4Cl)cc3)c(F)c2)C(=O)O1 [Compound 4126, N-[3-(4′-{[(5-Chloro-1,3-dimethyl-1H-pyrazol-4-ylmethyl)-amino]-methyl}-2-fluoro-biphenyl-4-yl)-2-oxo-oxazolidin-5-(S)-ylmethyl]-acetamide] | 0.5 µg/mL (≈ 1 µM)
22 | CC(=O)NC[C@H]1CN(c2ccc(-c3ccc(CNCc4nnn(C)n4)cc3)c(F)c2)C(=O)O1 [Compound 4284, N-[3-(2-Fluoro-4′-{[(2-methyl-2H-tetrazol-5-ylmethyl)-amino]-methyl}-biphenyl-4-yl)-2-oxo-oxazolidin-5-(S)-ylmethyl]-acetamide] | 0.25 µg/mL (≈ 0.551 µM)
23 | CC(=O)NC[C@H]1CN(c2ccc(-c3ccc(Cn4cccn4)nc3)c(F)c2)C(=O)O1 [Compound 1076, N-{3-[3-Fluoro-4-(6-pyrazol-1-ylmethyl-pyridin-3-yl)-phenyl]-2-oxo-oxazolidin-5-(S)-ylmethyl}-acetamide] | 1 µg/mL (≈ 2.44 µM)
24 | CC(=O)NC[C@H]1CN(c2ccc(-c3ccc(CN4CC[C@H](O)C4)cc3)c(F)c2)C(=O)O1 [Compound 1087, N-{3-[2-Fluoro-4′-(3-(S)-hydroxy-pyrrolidin-1-ylmethyl)-biphenyl-4-yl]-2-oxo-oxazolidin-5-(S)-ylmethyl}-acetamide] | 4 µg/mL (≈ 9.36 µM)
25 | CC(=O)NC[C@H]1CN(c2ccc(-c3ccc(S(=O)(=O)NCc4ccccn4)cc3)c(F)c2)C(=O)O1 [Compound 3006, N-(3-{2-Fluoro-4′-[(pyridin-2-ylmethyl)-sulfamoyl]-biphenyl-4-yl}-2-oxo-oxazolidin-5-(S)-ylmethyl)-acetamide] | 16 µg/mL (≈ 32.1 µM)
26 | O=C1O[C@@H](Cn2ccnn2)CN1c1ccc(-c2ccc(Cn3cccn3)cc2)c(F)c1 [Compound 1085, 3-(2-Fluoro-4′-pyrazol-1-ylmethyl-biphenyl-4-yl)-5-(R)-[1,2,3]triazol-1-ylmethyl-oxazolidin-2-one] | 0.5 µg/mL (≈ 1.19 µM)
27 | CC(=O)NC[C@H]1CN(c2ccc(-c3ccc(Cn4cc(CN)nn4)cc3)c(F)c2)C(=O)O1 [Compound 1011, N-{3-[4′-(4-Aminomethyl-[1,2,3]triazol-1-ylmethyl)-2-fluoro-biphenyl-4-yl]-2-oxo-oxazolidin-5-(S)-ylmethyl}-acetamide] | 1 µg/mL (≈ 2.28 µM)
28 | O=C1O[C@@H](Cn2ccnn2)CN1c1ccc(-c2ccc(CNCCSc3cnn[nH]3)cc2)c(F)c1 [Compound 5007, 3-(2-Fluoro-4′-{[2-(3H-[1,2,3]triazol-4-ylsulfanyl)-ethylamino]-methyl}-biphenyl-4-yl)-5-(R)-[1,2,3]triazol-1-ylmethyl-oxazolidin-2-one] | 0.25 µg/mL (≈ 0.506 µM)
29 | CC(=O)NC[C@H]1CN(c2ccc(-c3ccc(C(NC(=O)OCc4ccccc4)c4nn[nH]n4)cc3)c(F)c2)C(=O)O1 (mixture of isomers) [Compound 1039, [{4′-[5-(S)-(Acetylamino-methyl)-2-oxo-oxazolidin-3-yl]-2′-fluoro-biphenyl-4-yl}-(2H-tetrazol-5-(R/S)-yl)-methyl]-carbamic acid benzyl ester] | 128 µg/mL (≈ 229 µM)
30 | CC(=O)NC[C@H]1CN(c2ccc(-c3ccc(Cn4ccc(C=O)c4)cc3)c(F)c2)C(=O)O1 [Compound 1055, N-{3-[2-Fluoro-4′-(3-formyl-pyrrol-1-ylmethyl)-biphenyl-4-yl]-2-oxo-oxazolidin-5-(S)-ylmethyl}-acetamide] | 0.25 µg/mL (≈ 0.574 µM)
